How the values were obtained:
FXR LBD = molecular target: T1, FXR LBD (Homo sapiens, UniProt Q96RI1); experiment: Thermal shift assay, FXR LBD; type: binding; details: ligand 20 µM
T1 construct: purchased Sigma SRP2137
T1 sequence (Q96RI1 262-486 limits assumed): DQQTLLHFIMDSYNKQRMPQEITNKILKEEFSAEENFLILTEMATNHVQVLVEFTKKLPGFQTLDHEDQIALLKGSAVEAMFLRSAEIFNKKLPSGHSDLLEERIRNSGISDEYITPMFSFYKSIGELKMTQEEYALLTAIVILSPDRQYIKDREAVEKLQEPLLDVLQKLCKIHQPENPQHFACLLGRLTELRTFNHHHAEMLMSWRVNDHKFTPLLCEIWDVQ

[1] = test system: TAA-induced liver fibrosis model; experiment: TAA-induced liver fibrosis mouse model (8 weeks); type: in vivo
Experimental: To further explore the effects on fibrosis suppression, a thioacetamide (TAA)-induced liver fibrosis model was used. Liver fibrosis was induced by intraperitoneal injection of TAA at a dose of 150 mg/kg, administered three times a week for 8 weeks. […] After the treatment period, the mice were euthanized using CO2. Serum was collected for biochemical analysis, and liver tissues were immediately harvested and frozen in liquid nitrogen for subsequent quantitative reverse transcription polymerase chain reaction (qRT-PCR), western blotting, and biological analysis. Furthermore, some liver samples were fixed in 4% paraformaldehyde buffered to neutral pH for histochemical analysis. For long-term storage, remaining liver samples were stored at -80°C in a deep freezer. […] Liver fibrosis was induced by administering TAA intraperitoneally at a dose of 150 mg/kg three times a week for a duration of […]. […] Upon completion of the treatment period, mice were euthanized using CO2, and serum and liver tissue samples were harvested for subsequent evaluation. Serum samples collected from mice were incubated at room temperature for 20 min before being centrifuged at 3000 rpm for 20 min to separate blood cells and clotting factors. Serum alanine transaminase (ALT) and aspartate aminotransferase (AST) activities were measured using ALT and AST assay kits (Asan Pharm, Seoul, Republic of Korea) to assess liver injury. Blood urea nitrogen (BUN) levels in the serum were analyzed using a commercial assay kit ([…]-BUN, […] Diagnostics, Seoul, Republic of Korea; catalog number 1120171) following the manufacturer's guidelines. Creatinine levels in the serum were quantified using the […] assay kit ([…] Diagnostics; catalog number 1120051) in accordance with the manufacturer's instructions. Liver and kidney tissues were processed to detect histological changes through the following procedures. The tissues were fixed in 4% paraformaldehyde, and paraffin-embedded sections were prepared for H&E staining according to standard procedures. […]

PPARα LBD = molecular target: T2, PPARα LBD (Homo sapiens, UniProt Q07869); experiment: Thermal shift assay, PPARα LBD; type: binding; details: ligand 20 µM
T2 construct: purchased Sigma SRP2054
T2 sequence (Q07869 239-466 limits assumed): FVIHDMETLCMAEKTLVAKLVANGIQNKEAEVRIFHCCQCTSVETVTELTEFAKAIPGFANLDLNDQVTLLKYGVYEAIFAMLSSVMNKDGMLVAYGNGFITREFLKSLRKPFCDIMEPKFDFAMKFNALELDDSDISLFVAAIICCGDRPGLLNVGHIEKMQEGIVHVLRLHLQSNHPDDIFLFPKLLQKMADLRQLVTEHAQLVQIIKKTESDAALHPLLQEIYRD

SMILES	Melting temperature of FXR LBD (FXR LBD)	Damaged hepatocytes (H&E) ([1]; TAA mice)	Serum AST level ([1]; TAA mice, oral 3 mg/kg daily, increase still higher than in MHY5396 group)	Protection against fibrosis ([1]; TAA model, MHY5396 versus OCA)	Melting temperature of PPARα LBD (PPARα LBD)
CC[C@H]1[C@@H](O)[C@@H]2[C@H](CC[C@]3(C)[C@@H]([C@H](C)CCC(=O)O)CC[C@@H]23)[C@@]2(C)CC[C@@H](O)C[C@@H]12 [OCA, obeticholic acid]	altered	fewer damaged hepatocytes	smaller increase in AST levels than that in the TAA group	protective effects against fibrosis	
CC(C)(Oc1ccc(C(=O)c2ccc(Cl)cc2)cc1)C(=O)O [fenofibric acid]					altered
